BindingDB's records for doi:10.1021/jm00179a007 (1980)

Assay: In vitro inhibitory potency was measured against phenylethanolamine N-methyl-transferase

Structure (SMILES) | IC50 [µM]
NCc1cccc(Cl)c1 [(3-chlorophenyl)methanamine] | 9
CC(N)Cc1ccc(Cl)cc1 (configuration not stated) [para-chloroamphetamine] | 300
